Experimental findings from ChEMBL document CHEMBL2021853, “Discovery of 1,2,4-triazine derivatives as adenosine A(2A) antagonists using structure based drug design” (J Med Chem, 2012) are described below.

Data set [1] relates to Liver microsomes. The data set is described as follows: Half life in rat liver microsomes at 1 uM. For orientation: Microsomes from liver hold many membrane-bound enzymes, among them those of drug oxidation.
The test system of data set [2] is Plasma. The data set is described as follows: Plasma protein binding in rat at 10 uM after 6 hrs.
Data set [3] has as its target T1, Adenosine receptor A1 (Homo sapiens, UniProt P30542).
T1 sequence (P30542 whole entry): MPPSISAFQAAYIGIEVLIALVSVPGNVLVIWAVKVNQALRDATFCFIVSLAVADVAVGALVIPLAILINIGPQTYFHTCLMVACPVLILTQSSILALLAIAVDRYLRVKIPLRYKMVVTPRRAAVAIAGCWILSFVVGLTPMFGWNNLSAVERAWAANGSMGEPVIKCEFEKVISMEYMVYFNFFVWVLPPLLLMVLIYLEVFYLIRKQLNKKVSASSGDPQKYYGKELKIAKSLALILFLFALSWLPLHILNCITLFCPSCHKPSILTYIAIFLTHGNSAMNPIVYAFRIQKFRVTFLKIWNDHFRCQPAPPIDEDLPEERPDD

Data set [4] is described as follows: Terminal half life in rat at 1 mg/kg, iv. Details: dose 1 mg/kg, route intravenous. Particulars: in vivo, read-out: beta t1/2 (converted). It is filed as ADME, organism-based.
Data set [5] is described as follows: Cmax in rat at 2 mg/kg, po. It is filed as ADME, organism-based. Details: dose 2 mg/kg, route oral. Particulars: in vivo.
The nature of data set [6]: Tmax in rat at 2 mg/kg, po. It is filed as ADME, organism-based. Details: dose 2 mg/kg, route oral. The note with it: in vivo.
Data set [7] deals with Nucleic Acid. As to the kind of experiment: Ratio of drug level in brain to plasma in rat at 1 mg/kg, iv at 0.5 hrs. It is filed as ADME, organism-based. Details: dose 1 mg/kg, route intravenous.
Data set [8] has as its system Rattus norvegicus. As to the kind of experiment: Reversal of haloperidol-induced catalepsy in po dosed Sprague-Dawley rat administered 30 mins post haloperidol-challenge measured after 1 hr. It is filed as functional.
Data set [9] is described as follows: Oral bioavailability in rat at 2 mg/kg. It is filed as ADME, organism-based. Particulars: in vivo.
A short description of data set [10]: Volume of distribution at steady state in rat at 1 mg/kg, iv. It is filed as ADME, organism-based. Particulars: in vivo, read-out: Vdss. The arrangement: dose 1 mg/kg, route intravenous.
Data set [11] can be described thus: Plasma clearance in rat at 1 mg/kg, iv. It is filed as ADME, organism-based. Details: dose 1 mg/kg, route intravenous.
The nature of data set [12]: Terminal half life in rat at 2 mg/kg, po. It is filed as ADME, organism-based. The arrangement: dose 2 mg/kg, route oral. Particulars: in vivo, read-out: beta t1/2 (converted).
Data set [13] concerns Rattus norvegicus. The data set is described as follows: Reversal of haloperidol-induced catalepsy in po dosed Sprague-Dawley rat administered 30 mins post haloperidol-challenge measured after 2 hrs. It is filed as functional.
A short description of data set [14]: AUC (infinity) in rat at 1 mg/kg, iv. It is filed as ADME, organism-based. Details: dose 1 mg/kg, route intravenous, time infinity. The note with it: plasma.
Data set [15] is described as follows: Kinetic solubility of the compound.
Data set [16] concerns the target T2, Adenosine receptor A2b (Homo sapiens, UniProt P29275).
T2 sequence (P29275 whole entry): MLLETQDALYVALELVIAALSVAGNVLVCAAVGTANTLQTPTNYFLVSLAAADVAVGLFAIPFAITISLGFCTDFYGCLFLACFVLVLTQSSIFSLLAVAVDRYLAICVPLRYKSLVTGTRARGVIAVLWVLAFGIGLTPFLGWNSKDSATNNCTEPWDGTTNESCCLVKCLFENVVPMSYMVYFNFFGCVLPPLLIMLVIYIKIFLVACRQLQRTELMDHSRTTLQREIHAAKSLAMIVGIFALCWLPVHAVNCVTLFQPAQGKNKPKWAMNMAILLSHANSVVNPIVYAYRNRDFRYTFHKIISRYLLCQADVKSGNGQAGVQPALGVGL
The data set is described as follows: Inhibition of adenosine A2B receptor.

The target in data set [17] is T3, Adenosine receptor A3 (Homo sapiens) (UniProt P0DMS8).
T3 sequence (whole entry): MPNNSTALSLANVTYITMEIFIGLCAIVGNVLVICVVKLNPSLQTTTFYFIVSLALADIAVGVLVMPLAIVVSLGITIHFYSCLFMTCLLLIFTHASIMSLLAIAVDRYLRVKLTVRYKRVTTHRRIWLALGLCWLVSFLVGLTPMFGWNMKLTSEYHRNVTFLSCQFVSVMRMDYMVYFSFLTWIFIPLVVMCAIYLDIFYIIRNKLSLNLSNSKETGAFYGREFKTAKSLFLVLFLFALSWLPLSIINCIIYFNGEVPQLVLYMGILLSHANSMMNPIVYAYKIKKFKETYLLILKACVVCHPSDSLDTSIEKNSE
The data set is described as follows: Antagonist activity at adenosine A3 receptor. It is filed as functional.

For `Cc1cc(-c2nnc(N)nc2-c2ccc(F)cc2)cc(C(F)(F)F)n1`, the t1/2 in data set [1] stood at 1.62 h. For the same molecule, in [2], the PPB is 93%. For the same molecule, the Ki (commonly the equilibrium dissociation constant of an inhibitor or competing ligand from its target) in [3] was 117 nM.
For `Cc1cc(-c2nnc(N)nc2-c2ccccc2)cc(C(F)(F)F)n1`, the half-life in data set [4] was 1.2 h; in data set [12] it was 1.1 h. Moreover, the peak level in data set [5] (Cmax) was 244 ng/mL. Moreover, the Tmax (in general, the time from dosing to the highest level) in data set [6] was determined as 0.4 h. The molecule also came in with a t1/2 in data set [1] of 1.43 h. Also, the BPR in [7] is 3.2. The molecule also had a PPB in [2] of 92%. Also, the Activity result in data set [8] and in data set [13] was “Dose-dependent effect” in each case. For the same molecule, the ED50 in [8] and in data set [13] was 0.2 mg/kg in each case. The bioavailability (as a rule, dose-corrected exposure relative to a reference, in per cent) in [9] was determined as 100%. The Vd in data set [10] was found to be 4.6 L/kg. The clearance (usually the volume of plasma or blood freed of the substance per unit of time) in [11] was 42 mL/min/kg. For the same molecule, in [14], the AUC(0-inf) (usually the area under the concentration-time curve extrapolated to infinity) turned out to be 397 ng·h/mL.
With `Cc1cc(-c2nnc(N)nc2-c2ccccc2)cc(C)c1O`, the t1/2 in [1] was 1.25 h. Further, the PPB in data set [2] is given as 93.3%. For the same molecule, the Ki in data set [3] is 16.6 nM.
Regarding `Nc1nnc(-c2ccc(O)c(Cl)c2)c(-c2ccccc2)n1`, in [1], the t1/2 was 1.15 h. In [2], this molecule showed a PPB of 98%. Also, the Kinetic_solubility in data set [15] was 45 µM.
`Cc1cc(C)cc(-c2nnc(N)nc2-c2ccccc2)c1` returned a t1/2 in [1] of 0.15 h. In addition, the PPB in [2] was 98%. Further, the Ki in [3] was 195 nM. For the same molecule, the Kinetic_solubility in data set [15] is 20 µM.
Consider `Cc1cc(-c2nnc(N)nc2-c2cc(F)cc(F)c2)cc(C)n1`, for which, in data set [1], the t1/2 stood at 1.67 h. In data set [3], this molecule showed a Ki of 170 nM. Besides, in data set [15], the Kinetic_solubility came to 45 µM.
The molecule `Nc1nnc(-c2cccc(Cl)c2)c(-c2ccccc2)n1` displayed a t1/2 in data set [1] of 0.483 h. In data set [2], this molecule came in with a PPB of 97.9%.
For `Cc1cc(-c2nnc(N)nc2-c2cccc(F)c2)cc(C)n1`, the t1/2 in [1] worked out at 1.3 h. The molecule also registered a PPB in [2] of 87%. The same molecule showed a Ki in data set [3] of 110 nM.
Take `Cc1cc(-c2nnc(N)nc2-c2ccccc2)cc(C)n1`: the results for the Ki in data set [16] and in data set [3] were 50.1 nM and 85.1 nM, respectively. The molecule also returned a t1/2 in data set [1] of 1.67 h. The molecule also gave a PPB in data set [2] of 82.1%. This molecule also had an INH in [17] greater than 10 µM. Also, the Kinetic_solubility in data set [15] was 40 µM.
Consider `Nc1nnc(-c2cc(Cl)cc(Cl)c2)c(-c2ccccc2)n1`, for which the t1/2 in data set [1] was 1.8 h. In data set [17], this molecule came in with an INH greater than 10 µM.
Consider `Nc1nnc(-c2ccccc2)c(-c2ccccc2)n1`, for which the t1/2 in [1] is 0.383 h. Affinity in data set [3] was put at a Ki of 275 nM. Further, the Kinetic_solubility in data set [15] was greater than 100 µM.
